In US20190359560A1, “ANTI-INFLAMMATORY DRUG AND USES THEREOF” (KYUSHU UNIVERSITY, NATIONAL UNIVERSITY CORPORATION, priority 2015, published 2019):

Assays:
G0S2 protein [1] = assay: LPS-administered mice: G0S2 protein in liver (Western blotting); type: in vivo; conditions: LPS 10 μg/mouse tail vein; 5 mg/kg subcutaneous 1 hour after LPS; liver 5 hours later; vs LPS group
Experimental: LPS (10 μg/mouse) was administered to ICR male mice by tail vein injection to prepare an LPS-administered group. In addition, a mouse to which physiological saline was administered instead of LPS was prepared and used as a control group. Subsequently, the LPS-administered group was divided into two groups, in which 1 hour after the administration of LPS, Compound No. 2 was subcutaneously administered at a dose of 5 mg/kg to the dorsal region of mice of one group which was then served as an LPS+No. 2-administered group. Subsequently, 5 hours after the administration of Compound No. 2, mice of each group were sacrificed and the liver was harvested.
Subsequently, the expression level of the G0S2 protein in the liver of mice of each group obtained was quantified by Western blotting. FIG. 11A is a graph showing the quantitative results of the G0S2 protein.

G0S2 mRNA [2] = assay: G0S2 mRNA expression in Hepa1-6 cells (qRT-PCR); type: cell-based, mouse; conditions: 48 hours
Experimental: The effect of the compound on the expression level of mRNA of the G0S2 gene was evaluated for the three compounds extracted so far. 24 hours after seeding with Hepa1-6 cells, the cells were exposed to hit compounds at 10 μM and sampling and total RNA extraction were carried out 24 hours later. Subsequently, changes in the expression level of mRNA of the G0S2 gene were measured by a qRT-PCR method.
Hepa1-6 cells were exposed to 10 μM of each of seven derivatives of Compound No. 2 (Examples 2 and 4 to 9) and an effect of the derivative compounds on the expression level of G0S2 mRNA after 24 hours was evaluated.
Therefore, Hepa1-6 cells were exposed to Compound No. 2 and the compound of Example 2 (NS-3-011) in the range of 0.5 to 5 μM and an effect of the compounds on the expression level of endogenous G0S2 mRNA after 48 hours was evaluated.
Subsequently, Hepa1-6 cells were transfected with siRNA against Hsd17b4 or control siRNA in the presence (10 μM) or absence (indicated as “DMSO” in FIG. 22B) of Compound No. 2. Subsequently, each cell was recovered after 48 hours and total RNA was extracted. Subsequently, the expression level of the G0S2 gene was quantified by real-time PCR.

Ccl2 mRNA = Ccl2 mRNA in Hepa1-6 cells exposed to LPS or TNFα; type: cell-based, mouse; conditions: 10 μM, 12 hours
Experimental: Next, whether or not Compound No. 2 whose effect in vivo was confirmed has an effect to antagonize the activation of an inflammatory signal was examined. Hepa1-6 cells were exposed to Compound No. 2 at a dose of 10 μM simultaneously with exposure to lipopolysaccharide (LPS) or TNFα which activates NF-κB for which the G0S2 protein acts as a regulator. As shown in FIGS. 10A and 10B, the cells were recovered 12 hours after the exposure and the expression level of Ccl2 mRNA was measured. […] In addition, 25 μg of LPS was administered to the tail vein of a mouse to thereby construct a hepatitis model. 30 minutes after the administration of LPS, Compound No. 2 (5 mg/kg) was administered to the tail vein of the mouse, and the liver was sampled at 6 hours.

G0S2 mRNA [3] = assay: G0S2 mRNA in liver of normal mice; type: in vivo, mouse; conditions: normal ICR male mice, 15 mg/kg subcutaneous
Experimental: An effect of Compound No. 2 with a lower IC50 value on the expression level of G0S2 mRNA in the liver of normal mice was examined. Compound No. 2 was subcutaneously administered on the dorsal region of ICR male mice at a dose of 15 mg/kg. The expression level of G0S2 mRNA in the liver at 30 minutes, 1, 2, 4, 6, 12, and 24 hours after the administration of Compound No. 2 was measured.

[4] = test system: G0S2 promoter (−2030→+10); assay: G0S2 promoter (−2030→+10) luciferase assay in Hepa1-6 cells; type: cell-based, mouse; conditions: Hepa1-6 reporter cells, 10 μM, 24 hours
Experimental: To get closer to the environment in the liver, a cell stably expressing an expression cassette in which a luciferase gene was ligated to the downstream side of the G0S2 promoter (−2030→+10) was constructed in the Hepa1-6 cell, which is a mouse hepatoma-derived cell. Using this cell, an effect of the candidate compounds on the luciferase activity was evaluated in the same manner as in the primary screening described above.

G0S2 protein [5] = assay: G0S2 protein in liver of normal mice; type: in vivo, mouse; conditions: normal ICR male mice, 15 mg/kg subcutaneous, 4 hours and 6 hours after administration

For `CCCCCCNC(=N)NCc1ccccc1` [Compound No. 2], the “expression of G0S2 protein in the liver” value (G0S2 protein [1]) was “significantly inhibited”, the “G0S2 mRNA expression level” value (G0S2 mRNA [2]; 5 μM, vs DMSO) was “significant decrease” and the “effect of lowering the expression level of the G0S2 gene after transfection with siRNA against Hsd17b4” value (G0S2 mRNA [2]; 10 μM) was “disappeared”. For the same compound, the “expression level of the G0S2 gene” value (G0S2 mRNA [2]; 10 μM, control siRNA) was “significantly decreased”, the “expression of Ccl2 mRNA increased by LPS” value (Ccl2 mRNA; LPS 100 ng/mL) was “significantly inhibited” and the “expression of Ccl2 mRNA increased by TNFα” value (Ccl2 mRNA; TNFα 200 ng/mL) was “significantly inhibited”. For the same compound, the “expression level of G0S2 mRNA in the liver” value (G0S2 mRNA [3]; 2 hours and 12 hours) was “significantly decreased”, the “expression level of G0S2 mRNA in the liver” value (G0S2 mRNA [3]; 4 hours after administration) was “tended to decrease to about half” and the “G0S2 promoter (−2030→+10) activity (relative value)” value [4] was “less than ½”. The “expression level of G0S2 protein in the liver” value (G0S2 protein [5]) was “significant decrease”.
